Experimental data as given in publication PMC11568336, “Biochemical properties of immobilized horseradish peroxidase on ceramic and its application in removal of azo dye” (Scientific Reports, 2024).

System: T1, Horseradish peroxidase (HRP), soluble HRP
T1 construct: gene PRXC1A; free (soluble) enzyme
Experiment: absorbance at […] nm, Lineweaver-Burk plot
Format: biochemical, Armoracia rusticana
Conditions: soluble (free) enzyme; co-substrate H2O2 (8 mM in standard assay); 20 mM sodium acetate pH 6.0

Km: 35.5 mM
SMILES: COc1ccccc1O [guaiacol]
